Results on one compound are retold here after article PMC5591244, “Novel selective, potent naphthyl TRPM8 antagonists identified through a combined ligand- and structure-based virtual screening approach” (Scientific Reports, 2017).

Holding throughout (assay type): cell-based
In one assay the target is T1, wt TRPM8 (Homo sapiens, UniProt Q7Z2W7).
T1 construct: expressed in transfected cells; host or cells: HEK-293, transient (Lipofectamine 2000)
Nature of the assay: Calcium mobilization on HEK-293 cells transiently transfected with wt myc-tagged TRPM8. Particulars: icilin at EC80, wt; read-out: pIC50, inhibition of icilin activation, wt TRPM8 (converted). The source says: (§1) Single point mutations were introduced in the hTRPM8-coding sequence, and the mutated TRPM8 was cloned as N-terminal c-myc tagged version into the pcDNA3 expression vector. This was done in that way that the single variations could be easily swapped from the myc-tagged expression construct into the non-tagged TRPM8 wild type expression construct.
The list of the variants is the following: variant 1, t2233g, a2234c (=Y745A); variant 2, a2236g, t2237c (=I746A); variant 3, a2395g, a2396c (=N799A) and variant 4, a2405c (D802A). The cloning project comprised three steps. First of all, a unique XhoI restriction site was inserted by site-directed mutagenesis (SDM) using DNA of the pcDNA3_TRPM8 construct as template. The 0.6 kb DNA fragment between the unique 5′ XhoI (introduced) and 3′ BamHI (already present) restriction sites comprised all positions of the four single point mutations and could be later used for their insertion as well as swapping between myc-tagged and non-tagged TRPM8 versions. […] The obtained data from at least four wells (as replicates) were analyzed with GraphPad PRISM® software (version 5, GraphPad Software Inc.) to calculate the mean and standard error of the mean[58], to create sigmoidal concentration-response curves and to calculate IC50 values.

The target in another assay is T2, TRPM8 I746A (Homo sapiens, UniProt Q7Z2W7, I746A).
T2 construct: expressed in transfected cells; host or cells: HEK-293, transient (Lipofectamine 2000)
T2 sequence (Q7Z2W7 whole entry I746A): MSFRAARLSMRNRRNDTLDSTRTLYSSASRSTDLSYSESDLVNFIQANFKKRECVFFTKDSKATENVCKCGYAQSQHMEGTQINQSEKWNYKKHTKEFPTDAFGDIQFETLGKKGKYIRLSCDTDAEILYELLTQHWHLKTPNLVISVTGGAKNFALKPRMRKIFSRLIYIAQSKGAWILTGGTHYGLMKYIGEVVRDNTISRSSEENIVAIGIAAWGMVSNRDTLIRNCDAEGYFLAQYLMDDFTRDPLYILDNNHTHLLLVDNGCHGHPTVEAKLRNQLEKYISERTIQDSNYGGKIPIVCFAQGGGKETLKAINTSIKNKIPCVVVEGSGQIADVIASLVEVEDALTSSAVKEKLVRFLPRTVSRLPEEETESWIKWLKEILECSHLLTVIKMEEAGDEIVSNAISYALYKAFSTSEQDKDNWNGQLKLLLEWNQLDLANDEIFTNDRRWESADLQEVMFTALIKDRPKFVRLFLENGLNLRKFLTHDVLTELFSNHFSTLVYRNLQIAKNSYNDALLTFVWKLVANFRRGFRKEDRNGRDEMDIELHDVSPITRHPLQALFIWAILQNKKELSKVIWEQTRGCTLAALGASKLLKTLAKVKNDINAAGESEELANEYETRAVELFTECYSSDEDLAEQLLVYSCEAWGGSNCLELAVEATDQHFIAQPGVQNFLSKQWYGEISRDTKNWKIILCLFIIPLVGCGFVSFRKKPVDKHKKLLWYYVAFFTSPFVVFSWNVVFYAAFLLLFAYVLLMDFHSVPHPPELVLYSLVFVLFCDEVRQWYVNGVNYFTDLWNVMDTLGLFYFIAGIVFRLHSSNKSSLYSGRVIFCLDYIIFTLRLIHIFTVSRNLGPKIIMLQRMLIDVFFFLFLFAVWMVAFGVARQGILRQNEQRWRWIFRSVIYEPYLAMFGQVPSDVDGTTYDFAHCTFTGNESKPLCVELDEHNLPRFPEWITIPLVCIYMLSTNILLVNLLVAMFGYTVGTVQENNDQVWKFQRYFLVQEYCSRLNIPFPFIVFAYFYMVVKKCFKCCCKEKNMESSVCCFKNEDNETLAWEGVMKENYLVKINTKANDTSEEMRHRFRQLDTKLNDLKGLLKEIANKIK
Nature of the assay: Calcium mobilization on transiently transfected TRPM8 I746A mutant. The conditions noted are these: icilin at EC80, I746A; read-out: pIC50, inhibition of icilin activation, I746A (converted).
Description: as §1
(§2) The list of the variants is the following: variant 1, t2233g, a2234c (=Y745A); variant 2, a2236g, t2237c (=I746A); variant 3, a2395g, a2396c (=N799A) and variant 4, a2405c (D802A). The cloning project comprised three steps. First of all, a unique XhoI restriction site was inserted by site-directed mutagenesis (SDM) using DNA of the pcDNA3_TRPM8 construct as template. The 0.6 kb DNA fragment between the unique 5′ XhoI (introduced) and 3′ BamHI (already present) restriction sites comprised all positions of the four single point mutations and could be later used for their insertion as well as swapping between myc-tagged and non-tagged TRPM8 versions. In a second step, the c-myc tag sequence was introduced embedded within the TRPM8 coding sequence by PCR primers in two partially overlapping PCRs that were then joined by bridge PCR with the external 5′KpnI and internal 3′EcoRI primers and in the last step the point mutations 1 to 4 were inserted into pcDNA3_c-myc-TRPM8 by exchanging the wild type 5′XhoI-3′BamHI fragment (0.6 kb) with each of the corresponding variation fragment derived from synthetic DNA (provided by GeneArt, ThermoFisher Scientific).The myc-tagged constructs were transiently transfected in HEK-293 cells with Lipofectamine 2000 (Invitrogen) according to the manufacturer’s protocol. The pcDNA vectors containing the wt myc-tagged TRPM8 gene and the empty pcDNA3 (mock) were separately transfected into HEK-293 cells as controls. Cells were transfected and seeded on the same day at 17,500 cells/well in poly-D-lysine-coated 384-well plates (MATRIX #4332-CPL). Twenty-four hours after seeding, the activity of transfected TRPM8 receptors was tested using the calcium mobilization assay as described above. The analysis was performed on the basis of ΔF/F° (normalized MAX-MIN), where ΔF is the MAX between time points 117 and 182 minus the MIN between time points TP114 and TP116, and F° is the basal signal at time point TP0. The obtained data from at least four wells (as replicates) were analyzed with GraphPad PRISM® software (version 5, GraphPad Software Inc.) to calculate the mean and standard error of the mean[58], to create sigmoidal concentration-response curves and to calculate IC50 values.
On the technique in general: Calcium assays in cells follow changes in intracellular calcium, usually with a dye or a luminescent sensor.

Another assay has as its target T3, TRPM8 D802A (Homo sapiens, UniProt Q7Z2W7, D802A).
T3 construct: expressed in transfected cells; host or cells: HEK-293, transient (Lipofectamine 2000)
Nature of the assay: Calcium mobilization on transiently transfected TRPM8 D802A mutant. The conditions noted are these: Cooling agent 10 at EC80, D802A; read-out: pIC50, inhibition of Cooling agent 10 activation, D802A (converted).
Description: as §1
as §2, with “Cells were transfected and seeded on the same day at 17,500 cells/well in poly-D-lysine-coated 384-well plates (MATRIX #4332-CPL). Twenty-four hours after seeding, the activity of transfected TRPM8 receptors was tested using the calcium mobilization assay as described above. The analysis was performed on the basis of ΔF/F° (normalized MAX-MIN), where ΔF is the MAX between time points 117 and 182 minus the MIN between time points TP114 and TP116, and F° is the basal signal at time point TP0.” left out

The target of the next assay is T4, TRPM8 N799A (Homo sapiens, UniProt Q7Z2W7, N799A).
T4 construct: expressed in transfected cells; host or cells: HEK-293, transient (Lipofectamine 2000)
T4 sequence (Q7Z2W7 whole entry N799A): as the sequence (Q7Z2W7 whole entry I746A) above, with A746I, N799A counted along it
Kind of assay: Calcium mobilization on transiently transfected TRPM8 N799A mutant. The conditions noted are these: Cooling agent 10 at EC80, N799A; read-out: pIC50, inhibition of Cooling agent 10 activation, N799A (converted).
Description: as §1, §2

Another assay has as its target TRPV4 (Homo sapiens, UniProt Q9HBA0). Kind of assay: Selectivity calcium mobilization assay, TRPV4. Particulars: agonist 20 nM GSK1016790A. As to the method:
For calcium mobilization assays, cells were seeded at 10,000 cells/well in 384-well plates coated with poly-D-lysine (MATRIX black/clear bottom #4332-CPL, Thermo Scientific, Waltham, MA, USA) in complete medium.Twenty-four hours after seeding, the plates were washed with Tyrode’s buffer with a Bio-Tek-ELx405 Microplate Washer (Merck Millipore; Billerica, MA, USA), and then 10 µl/well of a solution containing the fluorescent Ca^2+ indicator Fluo-4 NW dye was added. Cells were incubated for 1 h at room temperature before test compounds were added at 3X the concentration with respect to the final wanted concentration to be tested with a FLIPR TETRA system (Molecular Devices, Sunnyvale, CA, USA). Calcium mobilization was monitored over a period of 5 min. A second injection of 10 µl/well of a reference agonist (icilin or Cooling agent 10) at 4X concentration in assay buffer was performed using the FLIPR TETRA system. Of note, for selectivity assays, the following agonists were used: 10 μM AITC (allyl isothiocyanate) for TRPA1; 100 nM Capsaicin for TRPV1; and 20 nM GSK1016790A for TRPV4.

A further assay has as its target T5, TRPM8 (Homo sapiens, UniProt Q7Z2W7).
T5 construct: expressed in transfected cells
Nature of the assay: Schild regression versus icilin. Particulars: data not shown. The procedure: Compound 1 was also tested in schild regression experiments[65] and compared with icilin and cooling agent (data not shown) to better characterize its mechanism of action. In these experiments, seven points for dose-response curves with icilin at seven different concentrations were analyzed.

T3 sequence (Q7Z2W7 whole entry D802A): as the sequence (Q7Z2W7 whole entry I746A) above, with A746I, D802A counted along it
T5 sequence (Q7Z2W7 whole entry): as the sequence (Q7Z2W7 whole entry I746A) above, with A746I counted along it
T1 sequence (Q7Z2W7 whole entry): as the sequence (Q7Z2W7 whole entry I746A) above, with A746I counted along it
Chain of TRPV4 (Q9HBA0 whole entry, species assumed): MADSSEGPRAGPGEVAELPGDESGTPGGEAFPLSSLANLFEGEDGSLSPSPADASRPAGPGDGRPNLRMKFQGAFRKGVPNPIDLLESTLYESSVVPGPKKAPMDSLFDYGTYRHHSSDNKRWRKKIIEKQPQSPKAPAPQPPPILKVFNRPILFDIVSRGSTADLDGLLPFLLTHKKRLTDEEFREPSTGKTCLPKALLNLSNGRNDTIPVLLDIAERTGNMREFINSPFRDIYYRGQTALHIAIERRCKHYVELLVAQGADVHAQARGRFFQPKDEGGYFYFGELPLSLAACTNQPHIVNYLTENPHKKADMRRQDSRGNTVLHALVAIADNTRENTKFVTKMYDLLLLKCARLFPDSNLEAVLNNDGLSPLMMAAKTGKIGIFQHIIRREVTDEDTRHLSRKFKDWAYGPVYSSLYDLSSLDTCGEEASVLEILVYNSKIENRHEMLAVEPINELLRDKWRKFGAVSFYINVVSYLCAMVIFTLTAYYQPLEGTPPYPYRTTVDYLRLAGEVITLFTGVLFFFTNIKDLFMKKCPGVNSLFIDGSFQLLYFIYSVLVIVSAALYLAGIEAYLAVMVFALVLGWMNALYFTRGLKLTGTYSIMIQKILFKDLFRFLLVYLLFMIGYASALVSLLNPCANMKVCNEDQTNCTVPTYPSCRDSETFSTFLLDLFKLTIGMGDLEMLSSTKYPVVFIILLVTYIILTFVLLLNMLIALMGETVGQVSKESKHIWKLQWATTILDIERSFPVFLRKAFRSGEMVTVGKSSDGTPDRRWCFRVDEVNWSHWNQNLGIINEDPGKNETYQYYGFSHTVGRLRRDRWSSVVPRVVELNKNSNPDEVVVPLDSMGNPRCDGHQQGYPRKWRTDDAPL

Regarding `Clc1c(OCCNCc2ccco2)ccc2ccccc12` [Compound 1], the IC50 on wt TRPM8 is 63.1 nM; at TRPM8 I746A it was 20 nM; at TRPM8 D802A, 3160 nM; at TRPM8 N799A, 10 nM. At TRPV4, the “Activity on TRPV4” value is “completely inactive”. Also, the “Binding mechanism by Schild regression” value at TRPM8 is on record as “orthosteric binding mechanism”.
